Measurements as given in US4923963A, “Bradykinin antagonist peptides” (Nova Technology Limited Partnership, priority 1987, dated 1990).
Like-named read-outs stand apart in the source and are kept apart here. Square brackets hold non-standard residues; d marks the D form. Peptide text beside a SMILES is read from it. dPhe(4-Cl) = N[C@H](Cc1ccc(Cl)cc1)C(=O)O; d2Nal = N[C@H](Cc1ccc2ccccc2c1)C(=O)O; Hyp = O=C(O)[C@@H]1C[C@@H](O)CN1; 2Thi = N[C@@H](Cc1cccs1)C(=O)O; d2Thi = N[C@H](Cc1cccs1)C(=O)O

What was measured:
[1] = system: isolated guinea pig ileum; assay type: cell-based; parameters: pA2 /GPI: activity class: scale not given here; conditions: isolated guinea pig ileum; for pA2 /GPI: activity class: not quantitated
Procedure: (§1) The bradykinin antagonists were assayed on isolated rat uterus in natural or induced estrus and on guinea pig ileum, according to the commonly accepted assay methods for bradykinin and related kinins as described by Trautschold (Handbook of Expt. Pharmacol. Vol 25, Springer Verlag, pp. 53-55, 1970) for inhibition of the myotropic activity of bradykinin. The inhibition potencies, as determined according to the commonly accepted manner described by Schild for antagonists of biologically active compounds (Br. J. Pharmacol. 2:189, 1947), and expressed as pA2 values are determined on isolated rat uterus (RUT) and isolated guinea pig ileum (GPI). In the assays, a dose-response curve is determined for the reference substance bradykinin. The dose of bradykinin which produced a half maximal contraction of tissue is the ED50 dose. An amount of bradykinin equivalent to twice the ED50 dose is administered to the tissue 30 seconds after the start of incubation of the tissue with a dose of antagonist. Doses of antagonist are increased in this protocol until pre-incubation with a dose of antagonist reduces the contraction in response to the double ED50 dose of bradykinin to response of a single ED50 dose of bradykinin. The pA2 value represents the negative logarithm of the molar concentration of antagonist necessary to reduce the response of a double ED50 dose of bradykinin to that of an ED50 dose. One unit of pA2 value represents an order of magnitude change in potency. For comparison, the negative log of the dose of BK, the dose which causes half maximal contraction of the tissues, is commonly known as the pD2 value. The pD2 value for bradykinin is 7.9 on the rat uterus and 7.4 on the guinea pig ileum.

isolated rat uterus = assay type: cell-based; conditions: for pA2 /RUT: activity class: not quantitated
Procedure: as §1

Structure (SMILES) | pA2 /GPI: activity class [1] | pA2 /RUT: activity class (isolated rat uterus; isolated rat uterus) | pA2 /RUT (antagonist potency) (isolated rat uterus) | other results
CC(=O)N[C@@H](CCCNC(=N)N)C(=O)N1CCC[C@H]1C(=O)N1CCC[C@H]1C(=O)NCC(=O)N[C@@H](Cc1cccs1)C(=O)N[C@@H](CO)C(=O)N[C@H](Cc1ccccc1)C(=O)N[C@@H](Cc1cccs1)C(=O)N[C@@H](CCCNC(=N)N)C(N)=O [Example 52, Ac-Arg-Pro-Pro-Gly-Thi-Ser-DPhe-Thi-Arg-NH2] (Ac-RPPG[2Thi]S[dF][2Thi]R-NH2) | 0 | 0 |  | 
N=C(N)NCCC[C@H](NC(=O)[C@H](Cc1ccccc1)NC(=O)[C@@H](Cc1ccccc1)NC(=O)[C@H](CO)NC(=O)[C@H](Cc1ccccc1)NC(=O)CNC(=O)[C@@H]1CCCN1C(=O)[C@@H]1CCCN1C(=O)[C@H](N)Cc1ccc2ccccc2c1)C(=O)O [Example 29, DNal-Pro-Pro-Gly-Phe-Ser-DPhe-Phe-Arg] (H-[d2Nal]PPGFS[dF]FR-OH) | 0 |  | 5.4 | 
N=C(N)NCCC[C@H](NC(=O)[C@H](Cc1ccccc1)NC(=O)[C@@H](Cc1cccs1)NC(=O)[C@H](CO)NC(=O)[C@H](Cc1ccccc1)NC(=O)CNC(=O)[C@@H]1CCCN1C(=O)[C@@H]1CCCN1C(=O)[C@H](N)Cc1ccc2ccccc2c1)C(=O)O [Example 37, DNal-Pro-Pro-Gly-Phe-Ser-DThi-Phe-Arg] (H-[d2Nal]PPGFS[d2Thi]FR-OH) | 0 | 0 |  | 
N=C(N)NCCC[C@H](NC(=O)[C@H](Cc1cccs1)NC(=O)[C@@H](Cc1ccccc1)NC(=O)[C@H](CO)NC(=O)[C@H](Cc1cccs1)NC(=O)CNC(=O)[C@@H]1C[C@@H](O)CN1C(=O)[C@@H]1C[C@@H](O)CN1C(=O)[C@@H](Cc1ccc2ccccc2c1)NC(=O)[C@H](CCCCN)NC(=O)[C@@H](N)CCCCN)C(=O)O [Example 28, Lys-Lys-DNal-Hyp-Hyp-Gly-Thi-Ser-DPhe-Thi-Arg] (H-KK[d2Nal][Hyp][Hyp]G[2Thi]S[dF][2Thi]R-OH) | 0 | 0 |  | 
N=C(N)NCCC[C@@H](N)C(=O)N[C@H](Cc1ccc2ccccc2c1)C(=O)N1CCC[C@H]1C(=O)N1CCC[C@H]1C(=O)NCC(=O)N[C@@H](Cc1ccccc1)C(=O)N[C@@H](CO)C(=O)N[C@H](Cc1ccccc1)C(=O)N[C@@H](Cc1ccccc1)C(=O)N[C@@H](CCCNC(=N)N)C(=O)O [Example 31, DArg-DNal-Pro-Pro-Gly-Phe-Ser-DPhe-Phe-Arg] (H-[dR][d2Nal]PPGFS[dF]FR-OH) | 0 |  | 5.6 | 
CC[C@H](C)[C@H](NC(=O)[C@H](CCCNC(=N)N)NC(=O)[C@H](Cc1ccccc1)NC(=O)[C@@H](Cc1ccccc1)NC(=O)[C@H](CO)NC(=O)[C@H](Cc1ccccc1)NC(=O)CNC(=O)[C@@H]1CCCN1C(=O)[C@@H]1CCCN1C(=O)[C@H](CCCNC(=N)N)NC(=O)[C@H](N)CCCNC(=N)N)C(=O)N[C@@H](Cc1ccc(O)cc1)C(=O)O [Example 64, DArg-Arg-Pro-Pro-Gly-Phe-Ser-DPhe-Phe-Arg-Ile-Tyr] (H-[dR]RPPGFS[dF]FRIY-OH) |  |  |  | pA2 /GPI (antagonist potency) ([1]; number of tissues in parentheses): 6.2; pA2 /RUT: agonist potency as percent of BK potency (isolated rat uterus; isolated rat uterus): 0.7%
N=C(N)NCCC[C@@H](N)C(=O)N[C@H](Cc1ccc(Cl)cc1)C(=O)N1CCC[C@H]1C(=O)N1CCC[C@H]1C(=O)NCC(=O)N[C@@H](Cc1ccccc1)C(=O)N[C@@H](CO)C(=O)N[C@H](Cc1ccccc1)C(=O)N[C@@H](Cc1ccccc1)C(=O)N[C@@H](CCCNC(=N)N)C(=O)O [Example 4, DArg-CDF-Pro-Pro-Gly-Phe-Ser-DPhe-Phe-Arg] (H-[dR][dPhe(4-Cl)]PPGFS[dF]FR-OH) | 0 |  |  | pA2 /RUT (antagonist potency) (isolated rat uterus; isolated rat uterus, number of tissues in parentheses): 5.4
N=C(N)NCCC[C@@H](N)C(=O)N[C@H](Cc1ccc2ccccc2c1)C(=O)N1C[C@H](O)C[C@H]1C(=O)N1C[C@H](O)C[C@H]1C(=O)NCC(=O)N[C@@H](Cc1cccs1)C(=O)N[C@@H](CO)C(=O)N[C@H](Cc1ccccc1)C(=O)N[C@@H](Cc1cccs1)C(=O)N[C@@H](CCCNC(=N)N)C(=O)O [Example 27, DArg-DNal-Hyp-Hyp-Gly-Thi-Ser-DPhe-Thi-Arg] (H-[dR][d2Nal][Hyp][Hyp]G[2Thi]S[dF][2Thi]R-OH) | 0 |  | 5.3 | 
